Results: patent US20240024290A1, “PHARMACEUTICAL COMPOSITIONS COMPRISING CANNABINOID AGONIST” (ARTELO BIOSCIENCES LIMITED, priority 2020, published 2024)
Where “and” joins values, the source holds several entries; their conditions need not be identical. Identical values can stand only once.

Assay: Solubility study of API in liquid, semi-solid and binary excipients (visual, solvent aliquots, Parts 1 and 2)
Conditions: for Aliquot where API first fully dissolved, Part 2 Study: aliquots 1/2/3/4 = 0.8/0.4/0.25/0.1 % w/v
Experimental: The aim of this study was to assess the solubility of the N-(2-(tert-butyl)-1-((4,4-difluorocyclohexyl)methyl)-1H-benzimidazol-5-yl)ethanesulfonamide in a number of different excipients.
The binary semi-solid composition mixtures were manufactured as follows: • I. The semi solids were dispensed then molten overnight at ˜60° C. […] (PEG 6000) • II. PEG 400 was added the next day, as required, (when all the semi-solids were molten) • III. Binary solvent mixture containing PEG 6000 were mixed at ˜80° C. and the remaining binaries were mixed at ˜70° C., until homogenous
Where required, the semi solids were melted prior to use (overnight). The solubility of the API in the selected solvents was assessed in two parts (Part 1 and Part 2 Studies) as follows: • i. Solvent aliquots were added to pre-dispensed API while mixing using a magnetic flea and stirrer. • ii. The temperature of the solvents was maintained as follows: • a. Single-component liquids: Room temperature (ambient) • b. TPGS and PEG 1500: ˜60° C. • c. PEG 6000 and binary solvent mixtures containing PEG 6000: ˜80° C. • iii. Solvents were mixed for a maximum of 1 hour between each aliquot addition. • iv. The solvents were carefully inspected visually between aliquots. • v. The addition of solvent was stopped when: • a. After Aliquot 2 addition if API fully dissolve—(even if API dissolve after Aliquot 1, Aliquot 2 was added) • b. After adding all the solvent aliquots in Table 28 • vi.

CCS(=O)(=O)Nc1ccc2c(c1)nc(C(C)(C)C)n2CC1CCC(F)(F)CC1 [Compound I, N-(2-(tert-butyl)-1-((4,4-difluorocyclohexyl)methyl)-1H-benzimidazol-5-yl)ethanesulfonamide]
Aliquot where API first fully dissolved, Part 1 Study (in 1,2-propane diol, ambient, DND = did not dissolve even after 3 aliquots (0.0125 % w/v)): DND* | Aliquot where API first fully dissolved, Part 1 Study (in Corn oil, ambient, DND = did not dissolve even after 3 aliquots (0.0125 % w/v)): DND* | Aliquot where API first fully dissolved, Part 2 Study (in Diethylene glycol monoethyl ether, ambient): 2nd | Aliquot where API first fully dissolved, Part 1 Study (in Diethylene glycol monoethyl ether, ambient, aliquots 1/2/3 = 0.05/0.025/0.0125 % w/v): 1st | Solubility range (% w/v) Above/Below (in Diethylene glycol monoethyl ether, ambient, listed as API): > 0.40% w/v and < 0.80% w/v | Aliquot where API first fully dissolved, Part 1 Study (in Glycerol, ambient, DND = did not dissolve even after 3 aliquots (0.0125 % w/v)): DND* | Aliquot where API first fully dissolved, Part 1 Study (in Kolliphor EL, ambient, DND = did not dissolve even after 3 aliquots (0.0125 % w/v)): DND* | Aliquot where API first fully dissolved, Part 1 Study (in Kolliphor ELP, ambient, DND = did not dissolve even after 3 aliquots (0.0125 % w/v)): DND* | Aliquot where API first fully dissolved, Part 1 Study (in Labrafil M 2125 CS, ambient, DND = did not dissolve even after 3 aliquots (0.0125 % w/v)): DND* | Observation of Part 2 solution on standing (in Labrasol ALF, after 4 aliquots (0.1 % w/v), 5 days later at ambient): Precipitate | Aliquot where API first fully dissolved, Part 2 Study (in Labrasol ALF, ambient): 3rd | Solubility range (% w/v) Above/Below (in Labrasol ALF, ambient, listed as API): > 0.025% w/v and < 0.05% w/v | Aliquot where API first fully dissolved, Part 1 Study (in Labrasol ALF, ambient, only after stirring overnight, aliquots 1/2/3 = 0.05/0.025/0.0125 % w/v): 2nd^# | Aliquot where API first fully dissolved, Part 1 Study (in Miglyol 812 (Medium-chain Triglycerides), ambient, DND = did not dissolve even after 3 aliquots (0.0125 % w/v)): DND* | Aliquot where API first fully dissolved, Part 2 Study (in Octanoic acid, ambient): 2nd | Aliquot where API first fully dissolved, Part 1 Study (in Octanoic acid, ambient, aliquots 1/2/3 = 0.05/0.025/0.0125 % w/v): 2nd | Solubility range (% w/v) Above/Below (in Octanoic acid, ambient, listed as API): > 0.40% w/v and < 0.80% w/v | Aliquot where API first fully dissolved, Part 1 Study (in Oleic acid, ambient, DND = did not dissolve even after 3 aliquots (0.0125 % w/v)): DND* | Aliquot where API first fully dissolved, Part 2 Study (in PEG 400, ambient): 4th | Aliquot where API first fully dissolved, Part 1 Study (in PEG 400, ambient, aliquots 1/2/3 = 0.05/0.025/0.0125 % w/v): 2nd | Aliquot where API first fully dissolved, Part 2 Study (in PEG400:PEG 1500 (1:1)): 1st | Aliquot where API first fully dissolved, Part 1 Study (in PEG400:PEG 1500 (1:1), aliquots 1/2/3 = 0.05/0.025/0.0125 % w/v): 1st | Solubility range (% w/v) Above/Below (in PEG400:PEG 1500 (1:1), upper limit not known): > 0.80% w/v | Aliquot where API first fully dissolved, Part 2 Study (in PEG400:PEG 1500 (1:9)): 1st | Aliquot where API first fully dissolved, Part 1 Study (in PEG400:PEG 1500 (1:9), aliquots 1/2/3 = 0.05/0.025/0.0125 % w/v): 1st | Solubility range (% w/v) Above/Below (in PEG400:PEG 1500 (1:9), upper limit not known): > 0.80% w/v | Aliquot where API first fully dissolved, Part 2 Study (in PEG400:PEG 1500 (9:1)): 1st | Aliquot where API first fully dissolved, Part 1 Study (in PEG400:PEG 1500 (9:1), aliquots 1/2/3 = 0.05/0.025/0.0125 % w/v): 1st | Solubility range (% w/v) Above/Below (in PEG400:PEG 1500 (9:1), upper limit not known): > 0.80% w/v | Aliquot where API first fully dissolved, Part 2 Study (in PEG1500:PEG6000 (1:1), ~80° C.): 1st | Aliquot where API first fully dissolved, Part 1 Study (in PEG1500:PEG6000 (1:1), ~80° C., aliquots 1/2/3 = 0.05/0.025/0.0125 % w/v): 1st | Solubility range (% w/v) Above/Below (in PEG1500:PEG6000 (1:1), ~80° C., upper limit not known): > 0.80% w/v | Aliquot where API first fully dissolved, Part 2 Study (in PEG1500:PEG6000 (1:9), ~80° C.): 1st | Aliquot where API first fully dissolved, Part 1 Study (in PEG1500:PEG6000 (1:9), ~80° C., aliquots 1/2/3 = 0.05/0.025/0.0125 % w/v): 3rd | Solubility range (% w/v) Above/Below (in PEG1500:PEG6000 (1:9), ~80° C., upper limit not known): > 0.80% w/v | Aliquot where API first fully dissolved, Part 2 Study (in PEG1500:PEG6000 (9:1), ~80° C.): 1st | Aliquot where API first fully dissolved, Part 1 Study (in PEG1500:PEG6000 (9:1), ~80° C., aliquots 1/2/3 = 0.05/0.025/0.0125 % w/v): 1st | Solubility range (% w/v) Above/Below (in PEG1500:PEG6000 (9:1), ~80° C., upper limit not known): > 0.80% w/v | Aliquot where API first fully dissolved, Part 2 Study (in PEG1500:TPGS (1:1)): 1st | Aliquot where API first fully dissolved, Part 1 Study (in PEG1500:TPGS (1:1), aliquots 1/2/3 = 0.05/0.025/0.0125 % w/v): 1st | Solubility range (% w/v) Above/Below (in PEG1500:TPGS (1:1), upper limit not known): > 0.80% w/v | Aliquot where API first fully dissolved, Part 2 Study (in PEG1500:TPGS (1:9)): 2nd | Aliquot where API first fully dissolved, Part 1 Study (in PEG1500:TPGS (1:9), aliquots 1/2/3 = 0.05/0.025/0.0125 % w/v): 3rd | Solubility range (% w/v) Above/Below (in PEG1500:TPGS (1:9), listed as API): > 0.40% w/v and < 0.80% w/v | Aliquot where API first fully dissolved, Part 2 Study (in PEG1500:TPGS (9:1)): 1st | Aliquot where API first fully dissolved, Part 1 Study (in PEG1500:TPGS (9:1), aliquots 1/2/3 = 0.05/0.025/0.0125 % w/v): 1st | Solubility range (% w/v) Above/Below (in PEG1500:TPGS (9:1), upper limit not known): > 0.80% w/v | Aliquot where API first fully dissolved, Part 2 Study (in Polysorbate 20, ambient, only after Overnight Hold): 4th Only | Aliquot where API first fully dissolved, Part 1 Study (in Polysorbate 20, ambient, only after stirring overnight, aliquots 1/2/3 = 0.05/0.025/0.0125 % w/v): 3rd^# | Solubility range (% w/v) Above/Below (in Polysorbate 20, ambient, upper limit not known): > 0.10% w/v | Aliquot where API first fully dissolved, Part 2 Study (in Polysorbate 80, ambient, only after Overnight Hold): 4th Only | Aliquot where API first fully dissolved, Part 1 Study (in Polysorbate 80, ambient, only after stirring overnight, aliquots 1/2/3 = 0.05/0.025/0.0125 % w/v): 3rd^# | Solubility range (% w/v) Above/Below (in Polysorbate 80, ambient, upper limit not known): > 0.10% w/v | Aliquot where API first fully dissolved, Part 2 Study (in Propylene glycol dilaurate, ambient, only after Overnight Hold): 4th Only | Aliquot where API first fully dissolved, Part 1 Study (in Propylene glycol dilaurate, ambient, only after stirring overnight, aliquots 1/2/3 = 0.05/0.025/0.0125 % w/v): 3rd^# | Solubility range (% w/v) Above/Below (in Propylene glycol dilaurate, ambient, upper limit not known): > 0.10% w/v | Aliquot where API first fully dissolved, Part 2 Study (in Propylene glycol monocaprylate, ambient): 2nd | Aliquot where API first fully dissolved, Part 1 Study (in Propylene glycol monocaprylate, ambient, aliquots 1/2/3 = 0.05/0.025/0.0125 % w/v): 2nd | Solubility range (% w/v) Above/Below (in Propylene glycol monocaprylate, ambient, listed as API): > 0.40% w/v and < 0.80% w/v | Aliquot where API first fully dissolved, Part 1 Study (in Soybean oil, ambient, DND = did not dissolve even after 3 aliquots (0.0125 % w/v)): DND* | Aliquot where API first fully dissolved, Part 2 Study (in molten Capmul 808G): 3rd | Aliquot where API first fully dissolved, Part 1 Study (in molten Capmul 808G, aliquots 1/2/3 = 0.05/0.025/0.0125 % w/v): 1st | Solubility range (% w/v) Above/Below (in molten Capmul 808G, listed as API): > 0.25% w/v and < 0.40% w/v | Solubility range (% w/v) Above/Below (in molten Cremophor RH40, listed as API): > 0.40% w/v and < 0.80% w/v | Aliquot where API first fully dissolved, Part 1 Study (in molten Cremophor RH40, only after Overnight Hold, aliquots 1/2/3 = 0.05/0.025/0.0125 % w/v): 2nd Only | Aliquot where API first fully dissolved, Part 2 Study (in molten Cremophor RH40, only after stirring overnight): 2nd^# | Aliquot where API first fully dissolved, Part 2 Study (in molten Gelucire 48/16): 4th | Aliquot where API first fully dissolved, Part 1 Study (in molten Gelucire 48/16, aliquots 1/2/3 = 0.05/0.025/0.0125 % w/v): 1st | Aliquot where API first fully dissolved, Part 2 Study (in molten Gelucire 50/13): 3rd | Aliquot where API first fully dissolved, Part 1 Study (in molten Gelucire 50/13, aliquots 1/2/3 = 0.05/0.025/0.0125 % w/v): 2nd | Solubility range (% w/v) Above/Below (in molten Gelucire 50/13, listed as API): > 0.25% w/v and < 0.40% w/v | Aliquot where API first fully dissolved, Part 2 Study (in molten Glyceryl monooleate): 2nd | Aliquot where API first fully dissolved, Part 1 Study (in molten Glyceryl monooleate, aliquots 1/2/3 = 0.05/0.025/0.0125 % w/v): 2nd | Solubility range (% w/v) Above/Below (in molten Glyceryl monooleate, listed as API): > 0.40% w/v and < 0.80% w/v | Aliquot where API first fully dissolved, Part 1 Study (in molten Glyceryl palmitostearate, DND = Did not dissolve (3 aliquots, 0.0125 % w/v)): DND* | Aliquot where API first fully dissolved, Part 2 Study (in molten Kolliphor HS15): 2nd | Aliquot where API first fully dissolved, Part 1 Study (in molten Kolliphor HS15, aliquots 1/2/3 = 0.05/0.025/0.0125 % w/v): 1st | Solubility range (% w/v) Above/Below (in molten Kolliphor HS15, listed as API): > 0.40% w/v and < 0.80% w/v | Aliquot where API first fully dissolved, Part 2 Study (in molten PEG 4000): 2nd | Aliquot where API first fully dissolved, Part 1 Study (in molten PEG 4000, aliquots 1/2/3 = 0.05/0.025/0.0125 % w/v): 1st | Solubility range (% w/v) Above/Below (in molten PEG 4000, listed as API): > 0.40% w/v and < 0.80% w/v | Aliquot where API first fully dissolved, Part 2 Study (in molten PEG 6000, ~80° C.): 1st | Aliquot where API first fully dissolved, Part 1 Study (in molten PEG 6000, ~80° C., aliquots 1/2/3 = 0.05/0.025/0.0125 % w/v): 2nd | Solubility range (% w/v) Above/Below (in molten PEG 6000, ~80° C., upper limit not known): > 0.80% w/v | Aliquot where API first fully dissolved, Part 1 Study (in molten Sorbitan palmitate, DND = Did not dissolve (3 aliquots, 0.0125 % w/v)): DND*
